Experimental findings from article PMC4015918, “Conjugation to a SMAC mimetic potentiates sigma-2 ligand induced tumor cell death in ovarian cancer” (Molecular Cancer, 2014) are described below.

The structures appear in SMILES notation.

The term Ki denotes a dissociation constant, usually derived from enzyme kinetics or from competition with a known ligand. The low end stands for higher affinity, the high end for lower affinity.

Assay [1] deals with SKOV3 cells. In words: Blocking study: competition with uptake of fluorescent sigma-2 ligand SW120, flow cytometry. Type of assay: cell-based. The note with it: SKOV3 cells pretreated 30 min with increasing concentrations, then 10 nM SW120 for 30 min. As for the experimental part:
Figure 1 Compound structures and cell binding characteristics of SW IV-134. (A) The chemical structures of sigma-2 ligand SW43, the SMAC peptidomimetic SW IV-52, and the chemical conjugate SW IV-134. Note that the chirality of SW IV-52 is fully retained in the drug conjugate (asterisks). […] SKOV3 cells were pretreated with increasing concentration of SW IV-134, followed by incubation with SW120, prior to analysis by flow cytometry.
SKOV3 cells (3 × 10^4/well) were seeded into 6 cm plates for 24 hours before treatment. The cells were incubated with 5, 10, 50, and 100 μM doses of SW IV-134 for 30 minutes at 37°C. After this step, 10 nM SW120 was added to the cell culture medium containing SW IV-134. After 30 minute incubation at 37°C, cells were washed twice with phosphate buffered saline (PBS) and harvested with 0.05% trypsin EDTA (Life Technologies, Grand Island, NY). The cells were centrifuged at 1000 × g for 5 minutes and pellets washed twice with PBS. Internalization of SW120 was determined by flow cytometer (FACSCalibur, BD Biosciences, San Jose, CA).
Supplementary file 1476-4598-13-50-S2.pdf: Additional file 2: Figure S1 Receptor binding characteristics of the individual components of SW IV-134. SKOV3 cells were pretreated with increasing concentration of (A) SW43 and (B) SW IV-52, followed by incubation with SW120, prior to analysis by flow cytometry. […] Click here for file
Background: Flow cytometry measures light scatter and fluorescence of single cells or particles in a stream.

The target in assay [2] is T1, sigma-2 receptor (Rattus norvegicus, UniProt Q5U3Y7).
T1 construct: guinea pig brain (sigma-1 assay) or rat liver (sigma-2 assay) membrane homogenates; from tissue; host or cells: rat liver membrane homogenate
T1 sequence (Q5U3Y7 1-176): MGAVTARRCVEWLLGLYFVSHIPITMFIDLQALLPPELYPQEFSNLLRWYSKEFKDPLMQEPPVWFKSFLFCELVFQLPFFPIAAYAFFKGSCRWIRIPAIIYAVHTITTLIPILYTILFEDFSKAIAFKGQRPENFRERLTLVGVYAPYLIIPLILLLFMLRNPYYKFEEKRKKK
Nature of the assay: Sigma-2 receptor binding, [3H](+)-DTG displacement in rat liver membrane homogenates. As for the experimental part: In order to verify its unaltered target recognition properties, the binding affinity of SW IV-134 to the sigma-2 receptor was determined using previously established methods employing rat liver membrane homogenates (see M&M and Ref [19] for details on receptor binding determinations). […] As another means to probe for the ability of SW IV-134 to bind to the sigma-2 receptor, we performed a competition assay using intact ovarian cancer cells and the fluorescently labeled SW43 homolog SW120 [21].
The sigma-1 and sigma-2 receptor binding affinities of SW IV-134 were determined as previously described. […] Each filter was washed three times with 200 μL of ice-cold wash buffer, and the bound radioactivity quantified using a Wallac 1450 MicroBeta liquid scintillation counter (Perkin Elmer, Boston, MA). Nonspecific binding was determined in the presence of 10 μM cold haloperidol. […]
(§1) Table S1. […] The sigma-1 and sigma-2 receptor binding affinities of S W I V-134 were determined as previously described (22). For details see also the Materials and Methods section. a Mean ± S .E .M .K i values were determined by at least three ex periments. b Ki for inhibiting the binding of [ 3H] […]

Assay [3] concerns ovarian cancer cell lines (SKOV3, OVCAR3, HEY A8, HEY A8 MDR). Nature of the assay: Cell viability (CellTiter-Glo) in a panel of four ovarian cancer cell lines. It is filed as cell-based. The note with it: increasing doses, 18 hours. How it is done: (A) SKOV3, (B) OVCAR3 (C) HEY A8 and (D) HEY A8 MDR cells were treated with increasing doses of SW43, SW IV-52, SW43 plus SW IV-52, and SW IV-134 for 18 hours. Cell viability was determined by CellTiter-Glo assays [p < 0.015 (A), NS (B), p < 0.017 (C), p < 0.034 (D), one-way ANOVA].
Cells (1 × 10^4) were seeded into 96 well plates. Treatment as described in the figure legends was initiated the following day. Cell viability was determined 18 hours after treatment using CellTiter-Glo Luminiscent Viability Assay (Promega, Madison, WI). Data were recorded with a SpectraMax Gemini microplate spectrofluorometer, Molecular Devices (Silicon Valley, CA).

Assay [4] deals with T2, sigma-1 receptor (Cavia porcellus, UniProt Q60492).
T2 construct: guinea pig brain (sigma-1 assay) or rat liver (sigma-2 assay) membrane homogenates; from tissue; host or cells: guinea pig brain membrane homogenate
Nature of the assay: Sigma-1 receptor binding, [3H](+)-pentazocine displacement in guinea pig brain membrane homogenates. The note with it: inhibiting binding of [3H](+)-pentazocine to guinea pig brain homogenates; mean ± S.E.M., at least three experiments. How it is done:
The sigma-1 and sigma-2 receptor binding affinities of SW IV-134 were determined as previously described. Briefly, guinea pig brain (sigma-1 assay) or rat liver (sigma-2 assay) membrane homogenates (~300 μg protein) were diluted with 50 mM Tris-HCl, pH 8.0 and incubated with the radioligand {~5 nM [^3H](+)-pentazocine (34.9 Ci/mmol; sigma-1 assay) or ~5 nM [3H](+)-DTG (58.1 Ci/mmol; sigma-2 assay)} and SW IV-134 with concentrations ranging from 0.1 nM to 10 μM in a total volume of 150 μL in 96-well plates at 25°C. […] Each filter was washed three times with 200 μL of ice-cold wash buffer, and the bound radioactivity quantified using a Wallac 1450 MicroBeta liquid scintillation counter (Perkin Elmer, Boston, MA). Nonspecific binding was determined in the presence of 10 μM cold haloperidol. […]
as §1

T2 sequence (Q60492 whole entry): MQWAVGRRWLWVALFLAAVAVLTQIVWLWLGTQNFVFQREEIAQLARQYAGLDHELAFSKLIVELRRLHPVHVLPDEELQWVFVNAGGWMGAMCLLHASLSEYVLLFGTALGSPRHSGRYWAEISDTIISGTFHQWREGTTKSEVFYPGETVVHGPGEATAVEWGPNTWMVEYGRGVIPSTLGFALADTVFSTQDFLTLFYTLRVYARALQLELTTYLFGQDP

As to `COc1ccc(C)cc1NC(=O)OC1CC2CCCC(C1)N2CCCCCCCCCCN` (centres unmarked) [SW43, reference compound], in assay [1], the “Blocking of SW120 uptake” value is “prevents uptake of the fluorescently labeled sigma-2 ligand SW120 in a dose-dependent fashion”. Besides, the Ki turned out to be 7.1 ± 1.3 nM in assay [2] and 134 ± 11.9 nM in assay [4]. For the same molecule, in assay [3], the “Killing activity (cell viability)” value is given as “effective against different ovarian cancer cell lines”.
In the case of `COc1ccc(C)cc1NC(=O)OC1CC2CCCC(C1)N2CCCCCCCCCCN[C@@H](C)C(=O)N[C@H](C(=O)N1CCC[C@H]1C(=O)N[C@@H]1CCCc2ccccc21)C(C)(C)C` (some centres unmarked) [SW IV-134], the “Blocking of SW120 uptake” value in assay [1] was “dose-dependent reduction of SW120 signal intensity”. The Ki stood at 22.6 ± 1.8 nM in assay [2] and 5740 ± 476 nM in assay [4]. Moreover, the “Killing activity (cell viability)” value in assay [3] is “greater cytotoxicity”.
